Data set [1] is described as follows: Kinetic study in dogs (effect of salt or crystal form on blood kinetics). It is filed as in vivo. The following applies: 6 mg/3 mL/kg expressed in terms of levodopa. How it is done:
(2) Kinetic Study in Dogs (Effect of Salt or Crystal Form on Blood Kinetics)
In general, it is considered that when the salt or crystal form is different, a difference in solubility thereof or the like affects blood kinetics and sometimes causes a difference in potency of efficacy.
The collection of a plasma sample was carried out according to the previous section (1). However, the dose was set to 6 mg/3 mL/kg.
The preparation of an analytical sample and analysis were carried out according to the previous section (1).
In the above Table 6, a change over time in the concentration (μg/mL) of levodopa observed in the plasma when the compound of the present invention produced in Example 6, the compound of the present invention produced in Example 9, or the compound of the present invention produced in Example 10 was orally administered to dogs is shown. The numeral expressed with ± in the parenthesis represents a standard deviation.

The subject of data set [2] is rat model injected with 6-hydroxydopamine into the medial forebrain bundle. Kind of data set: Rotation test in model injected with 6-hydroxydopamine into medial forebrain bundle. The settings on record: 6-OHDA rats. It is filed as in vivo, rats (male Crl:CD(SD)IGS). The source says: In the experiment, male Crl:CD(SD)IGS rats (Charles River Japan, Inc.) supplied at 5 weeks of age were used. The rats were housed in Econ cages (4 or less rats per cage) and were raised by giving free access to solid feed CRF-1 (Oriental Yeast Co., Ltd.) and tap water (in a water bottle) until they were subjected to the experiment. When acclimation after shipping was completed, each of the Crl:CD(SD)IGS rats at 6 weeks of age was anesthetized with pentobarbital sodium (Somnopentyl (registered trademark) injectable solution, 35 mg/kg, intraperitoneal injection). Subsequently, for the purpose of preventing damage to norepinephrine neurons by 6-hydroxydopamine (6-OHDA), desipramine (25 mg/kg) was intraperitoneally injected, and the rat was held and fixed by a brain fixation device. A small bone window was opened with a hand drill at a desired site, and 6-OHDA was injected into the medial forebrain bundle according to the brain atlas of Paxinos and Watson using a 30 G cannula (Brain Science Idea. Co. Ltd.) with a needle tip cut at an angle of 45° (site of injection: A=−4.5 mm, L=+1.2 mm, and V=−7.8 mm with respect to the bregma, injection amount: 8 μg/4 μL/8 min/site in each case). […] Thereafter, the burr hole was closed with an instant glue, and then sutured and disinfected with iodine tincture. […] In a rotation test, a device configured such that a black plastic circular cylinder having a diameter of 30 cm and a height of 35 cm was placed upright in a black-painted bowl having an opening diameter of 35 cm and a bottom diameter of 17 cm was used (the height of the curve from the bottom of the bowl to the bottom edge of the cylinder was set to 7 cm). The rat was placed in the device (one rat per device) and acclimated to the device for 30 minutes. Thereafter, a test substance was administered to the rat, and the rat was returned to the same device and videotaped. […] As for the number of rotations, a 360° rotation in one direction was determined to be one rotation. In the case where the direction (body's direction of movement or movement direction) was changed during rotation, the rotation was not included in the count. […] Incidentally, in each case, benserazide which is a dopa decarboxylase inhibitor (8 mg/kg) was orally administered concomitantly. […] In addition, the respective values are each a mean of the values obtained using 11 rats in each group and its standard error.

A short description of data set [3]: Kinetic study in dogs (oral administration, plasma levodopa). The source says: The relationship between the blood concentration of levodopa and side effects in patients who take levodopa has been gradually elucidated. […] In order to reduce the number of doses of levodopa and avoid side effects such as dyskinesia and wearing-off in patients who take levodopa, it is necessary to maintain the blood concentration of levodopa within a therapeutic range as long as possible.
These levodopa prodrugs are prodrugs containing an ester bond, and therefore, it is considered that among a number of enzymes, carboxyesterase plays the most important role in the process of producing levodopa by metabolizing the compound after the compound is administered in vivo. Therefore, as an animal species to be used for performing a kinetic study, dogs in which the organ distribution of carboxyesterase is most similar to that of humans were selected as subjects for evaluation.
The thus obtained drug solution was administered by gavage through a gastric tube into the stomach of dogs (male beagle dogs) which were fasted from the day before the administration. At 15 and 30 minutes, and 1, 2, 4, 6, and 8 hours after administration of the drug solution, 1 mL of blood was collected from a cephalic vein with a heparinized syringe. Immediately after the collection, the collected blood was centrifuged in a desktop centrifuge at 14500 rpm for 45 seconds. Then, acetonitrile containing 0.1125% formic acid was added to the thus obtained plasma in an amount as twice as large as the volume of the plasma, followed by stirring, and then, the resulting sample was stored at −20° C. until measurement.
The sample was thawed on the measurement day, followed by stirring and centrifugation at 13000 rpm for 3 minutes (at 4° C.). The resulting supernatant was filtered and the filtrate was analyzed by LC/MS/MS. The analysis was performed by LC/MS/MS under the following conditions.
Measurement Apparatus: API-5000 (manufactured by Applied Biosystems, Inc.)
Analytical column: CAPCELL PAK CR (1:4) (4.6 mm, I.D.×250 mm, 5 μm)
Analytical column temperature: 40° C.
Mobile phase: A: 5 mM ammonium formate (pH 3.9), B: acetonitrile (A/B=17/3)
Detection (levodopa): m/z (precursor): 196.19, m/z (product): 134.99
DP (Declustering Potential): −60
CE (Collision Energy): −25
CXP (Collision Cell Exit Potential): −17
Incidentally, the numerical value in the column which indicates the dose expressed in terms of levodopa refers to a dose equivalent to that of levodopa.

The conditions of data set [4]: in vivo; cited from earlier work.
Another data set relates to p53R2. Put plainly: Mutagenicity assay using mammalian cells (NESMAGET method). The class given is cell-based. The following applies: for Mutagenicity assay (NESMAGET) Concentration at which mutagenicity was determined to be positive: concentration at which relative luciferase activity of p53R2 exceeded 200% (vehicle control 0.3% dimethylsulfoxide = 100%); for determination of mutagenicity: positive = relative luciferase activity of p53R2 exceeded 200%, compound of the present invention up to 200 μg/mL. On the procedure: In the treatment of Parkinson's disease and/or Parkinson's syndrome, there is a possibility that a levodopa prodrug is continued to be taken over a long period of time of several years to several decades. Therefore, an evaluation was carried out as to whether or not the compound of the present invention has mutagenicity by a mutagenicity assay using mammalian cells.
A mutagenicity assay using mammalian cells was carried out as a commissioning test to be undertaken by Nissin Foods Holdings Co., Ltd. The present method also called NESMAGET method is a method in which the expression of p53R2 which is a DNA repair gene is detected by luciferase activity, and the specific experimental technique is described in JP-A-2005-000024 and Japanese Patent No. 4243716. In the determination as to whether or not the result of this test was positive, the luciferase activity of p53R2 in the case of a vehicle control (0.3% dimethylsulfoxide) was taken as 100%, and a concentration at which a relative luciferase activity exceeded 200% was determined to be “concentration at which mutagenicity was determined to be positive”.

Setting [5] is: male, beagle, dog, in vivo, po, 3 mg/kg.

The values that follow come from patent US8748485B2, “Compound and medical use thereof” (Ono Pharmaceuticals Co., Ltd., priority 2010, dated 2014).

`CC(C)(OC(=O)c1ccccc1)C(=O)Oc1ccc(C[C@H](N)C(=O)O)cc1OC(=O)C(C)(C)OC(=O)c1ccccc1.Cc1ccc(S(=O)(=O)O)cc1` [Example 6, (2S)-2-amino-3-(3,4-bis((2-(benzoyloxy)-2-methylpropanoyl)oxy)phenyl)propanoic acid tosylate]: the “Absorption through oral administration” value in data set [1] was “can be absorbed through oral administration”.

Consider `CC(C)(OC(=O)c1ccccc1)C(=O)Oc1ccc(C[C@H](N)C(=O)O)cc1OC(=O)C(C)(C)OC(=O)c1ccccc1` [Example 9, (2S)-2-amino-3-(3,4-bis((2-(benzoyloxy)-2-methylpropanoyl)oxy)phenyl)propanoic acid], for which the “Absorption through oral administration” value in data set [1] is listed as “can be absorbed through oral administration”. In addition, in data set [2] (used in place of Example 5), the “rotational behavior compared with the compound produced in Example 5” value is “the same results were obtained”.

Regarding `CC(C)(OC(=O)c1ccccc1)C(=O)Oc1ccc(C[C@H](N)C(=O)O)cc1OC(=O)C(C)(C)OC(=O)c1ccccc1` [Example 10, (2S)-2-amino-3-(3,4-bis((2-(benzoyloxy)-2-methylpropanoyl)oxy)phenyl)propanoic acid], the “Absorption through oral administration” value in data set [1] is “can be absorbed through oral administration”.

The term AUC denotes the area under the concentration-time curve, a measure of exposure. The low end stands for low exposure, the high end for high exposure. In the case of `N[C@@H](Cc1ccc(O)c(O)c1)C(=O)O` [Levodopa, L-3,4-dihydroxyphenylalanine], the “time after administration at which the number of rotations reached a maximum value” in data set [2] (oral, levodopa 30 mg/kg or Example 5 100 mg/kg expressed in terms of levodopa, benserazide 8 mg/kg) came out at 20 min. Moreover, the “maximum value of the number of rotations per 10 minutes” value in data set [2] (oral, levodopa 30 mg/kg or Example 5 100 mg/kg expressed in terms of levodopa, benserazide 8 mg/kg concomitantly, N=11) is “about 100 times”. Further, the “AUC (area under the blood concentration-time curve of levodopa)” value in data set [3] (levodopa in plasma, fasted male beagle dogs, oral gavage, dose 3 mg/kg expressed in terms of levodopa) is 0.96 μg^+ hr/mL. For the same compound, the “Cmax/C6 hr (ratio of maximum plasma concentration and plasma concentration at 6 hours after oral administration, levodopa)” value in data set [3] (setting [5]) was determined as 913.8. The AUC in data set [3] (male, beagle, dog, plasma, po, 3 mg/kg) was found to be 960 ng·h/mL. Besides, in data set [4], the “percentage of the absorbed levodopa distributed in the central nervous system” value is “less than 1%” and the “share of the absorbed levodopa metabolized by aromatic L-amino acid decarboxylase (AADC) in organs other than the central nervous system” value is at least 95%.

Consider `CC(C)(COC(=O)c1cccs1)C(=O)Oc1ccc(C[C@H](N)C(=O)O)cc1OC(=O)C(C)(C)COC(=O)c1cccs1.Cl` [Reference Example 6, (2S)-2-Amino-3-(3,4-bis((2,2-dimethyl-3-((thiophene-2-carbonyl)oxy)propanoyl)oxy)phenyl)propanoic acid hydrochloride], for which, in the data set with p53R2, the “Mutagenicity assay (NESMAGET) Concentration at which mutagenicity was determined to be positive” value (from here on “Mutagenicity assay”) is 2.4 µg/mL and the determination of mutagenicity entry is “positive for mutagenicity”. Moreover, the “AUC (area under the blood concentration-time curve of levodopa)” value in data set [3] (dog, in vivo, po, 3 mg/kg) is given as 0.66 μg^+ hr/mL. The “Cmax/C6 hr (ratio of maximum plasma concentration and plasma concentration at 6 hours after oral administration, levodopa)” value in data set [3] (setting [5]) amounted to 14.7.

In the case of `CC(C)(COC(=O)c1ccsc1)C(=O)Oc1ccc(C[C@H](N)C(=O)O)cc1OC(=O)C(C)(C)COC(=O)c1ccsc1.Cl` [Reference Example 11, (2S)-2-Amino-3-(3,4-bis((2,2-dimethyl-3-((thiophene-3-carbonyl)oxy)propanoyl)oxy)phenyl)propanoic acid hydrochloride], in the data set on p53R2, the “Mutagenicity assay” value was determined as 1.4 µg/mL and the determination of mutagenicity entry is listed as “positive for mutagenicity”. For the same compound, the “AUC (area under the blood concentration-time curve of levodopa)” value in data set [3] (dog, in vivo, po, 3 mg/kg) is 0.52 μg^+ hr/mL. Further, the “Cmax/C6 hr (ratio of maximum plasma concentration and plasma concentration at 6 hours after oral administration, levodopa)” value in data set [3] (setting [5]) is recorded as 23.9.

On to `COc1ccccc1C(=O)OCC(C)(C)C(=O)Oc1ccc(C[C@H](N)C(=O)O)cc1OC(=O)C(C)(C)COC(=O)c1ccccc1OC.Cl` [Reference Example 16], for which, in the data set on p53R2, the “Mutagenicity assay” value is 84 µg/mL and the determination of mutagenicity entry was “positive for mutagenicity”. Besides, in data set [3] (dog, in vivo, po, 3 mg/kg), the “AUC (area under the blood concentration-time curve of levodopa)” value was 0.22 μg^+ hr/mL. For the same compound, the “Cmax/C6 hr (ratio of maximum plasma concentration and plasma concentration at 6 hours after oral administration, levodopa)” value in data set [3] (setting [5]) is given as 7.4.

In the case of `CC(C)(COC(=O)c1ccccc1)C(=O)Oc1ccc(C[C@H](N)C(=O)O)cc1OC(=O)C(C)(C)COC(=O)c1ccccc1.Cl` [Reference Example 40, (S)-2-Amino-3-(3,4-bis((3-(benzoyloxy)-2,2-dimethylpropanoyl)oxy)phenyl)propanoic acid hydrochloride], in the data set on p53R2, the “Mutagenicity assay” value came out at 16 µg/mL and the determination of mutagenicity result was “positive for mutagenicity”. The “AUC (area under the blood concentration-time curve of levodopa)” value in data set [3] (dog, in vivo, po, 3 mg/kg) is listed as 0.81 μg^+ hr/mL. Further, in data set [3] (setting [5]), the “Cmax/C6 hr (ratio of maximum plasma concentration and plasma concentration at 6 hours after oral administration, levodopa)” value worked out at 4.3.
